US11299501B2 (BRISTOL-MYERS SQUIBB COMPANY, priority 2017, dated 2022)

Tests used:
Format in all cases: cell-based
human TLR9 = biological target: T1, human TLR9 (Homo sapiens, UniProt Q9NR96); assay: TLR9 inhibition reporter assay (HEK-Blue SEAP); details: cells overexpressing human TLR9, SEAP reporter, stimulated with ODN2006 5 nM, 22 hour incubation
T1 construct: host or cells: HEK-Blue cells
T1 sequence (Q9NR96 26-1032): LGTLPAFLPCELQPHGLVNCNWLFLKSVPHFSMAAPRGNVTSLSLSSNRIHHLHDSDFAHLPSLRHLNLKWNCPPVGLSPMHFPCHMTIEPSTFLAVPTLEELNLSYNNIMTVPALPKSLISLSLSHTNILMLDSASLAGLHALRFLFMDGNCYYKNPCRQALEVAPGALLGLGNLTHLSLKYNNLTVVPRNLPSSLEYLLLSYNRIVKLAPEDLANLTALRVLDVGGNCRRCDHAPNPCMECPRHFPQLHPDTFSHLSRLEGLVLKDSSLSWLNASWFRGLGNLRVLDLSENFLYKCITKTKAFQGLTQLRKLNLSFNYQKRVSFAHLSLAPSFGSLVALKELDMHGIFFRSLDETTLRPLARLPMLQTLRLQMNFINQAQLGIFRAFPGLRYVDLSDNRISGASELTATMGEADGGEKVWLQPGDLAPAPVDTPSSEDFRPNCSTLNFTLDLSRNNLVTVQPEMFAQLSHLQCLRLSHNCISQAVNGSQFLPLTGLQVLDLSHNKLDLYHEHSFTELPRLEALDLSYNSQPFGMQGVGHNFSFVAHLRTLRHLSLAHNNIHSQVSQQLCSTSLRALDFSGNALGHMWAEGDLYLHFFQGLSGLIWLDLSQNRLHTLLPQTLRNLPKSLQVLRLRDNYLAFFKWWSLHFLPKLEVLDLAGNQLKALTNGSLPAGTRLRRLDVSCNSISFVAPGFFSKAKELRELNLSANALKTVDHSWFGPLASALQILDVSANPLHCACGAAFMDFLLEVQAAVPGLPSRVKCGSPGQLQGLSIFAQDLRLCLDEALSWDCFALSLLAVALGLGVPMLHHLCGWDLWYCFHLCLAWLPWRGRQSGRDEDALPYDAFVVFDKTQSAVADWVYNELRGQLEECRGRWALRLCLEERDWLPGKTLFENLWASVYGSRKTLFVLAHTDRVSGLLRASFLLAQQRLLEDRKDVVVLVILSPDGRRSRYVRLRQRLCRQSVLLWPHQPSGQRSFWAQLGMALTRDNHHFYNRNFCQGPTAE
Procedure: (§1) TLR7/8/9 Inhibition Reporter Assays
(§2) […] (Invivogen) overexpressing human TLR7, TLR8 or TLR9 receptors were used for screening inhibitors of these receptors using an inducible SEAP (secreted embryonic alkaline phosphatase) reporter gene under the control of the IFN-β minimal promoter fused to five NF-κB and AP-1-binding sites. Briefly, cells are seeded into Greiner 384 well plates (15000 cells per well for TLR7, 20,000 for TLR8 and 25,000 for TLR9) and then treated with test compounds in DMSO to yield a final dose response concentration range of 0.05 nM-50 μM. After a 30 minute compound pre-treatment at room temperature, the cells are then stimulated with a TLR7 ligand (gardiquimod at a final concentration of 7.5 μM). TLR8 ligand (R848 at a final concentration of 15.9 μM) or TLR9 ligand (ODN2006 at a final concentration of 5 nM) to activate NF-κB and AP-1 which induce the production of SEAP. After a 22 hour incubation at 37° C., 5% CO2, SEAP levels are determined with the addition of HEK-Blue™ Detection reagent (Invivogen), a cell culture medium that allows for detection of SEAP, according to manufacturer's specifications. The percent inhibition is determined as the % reduction in the HEK-Blue signal present in wells treated with agonist plus DMSO alone compared to wells treated with a known inhibitor.

human TLR7 = biological target: T2, human TLR7 (Homo sapiens, UniProt Q9NYK1); assay: TLR7 inhibition reporter assay (HEK-Blue SEAP); details: cells overexpressing human TLR7, SEAP reporter, stimulated with gardiquimod 7.5 μM, 22 hour incubation
T2 construct: host or cells: HEK-Blue cells
T2 sequence (Q9NYK1 27-1049): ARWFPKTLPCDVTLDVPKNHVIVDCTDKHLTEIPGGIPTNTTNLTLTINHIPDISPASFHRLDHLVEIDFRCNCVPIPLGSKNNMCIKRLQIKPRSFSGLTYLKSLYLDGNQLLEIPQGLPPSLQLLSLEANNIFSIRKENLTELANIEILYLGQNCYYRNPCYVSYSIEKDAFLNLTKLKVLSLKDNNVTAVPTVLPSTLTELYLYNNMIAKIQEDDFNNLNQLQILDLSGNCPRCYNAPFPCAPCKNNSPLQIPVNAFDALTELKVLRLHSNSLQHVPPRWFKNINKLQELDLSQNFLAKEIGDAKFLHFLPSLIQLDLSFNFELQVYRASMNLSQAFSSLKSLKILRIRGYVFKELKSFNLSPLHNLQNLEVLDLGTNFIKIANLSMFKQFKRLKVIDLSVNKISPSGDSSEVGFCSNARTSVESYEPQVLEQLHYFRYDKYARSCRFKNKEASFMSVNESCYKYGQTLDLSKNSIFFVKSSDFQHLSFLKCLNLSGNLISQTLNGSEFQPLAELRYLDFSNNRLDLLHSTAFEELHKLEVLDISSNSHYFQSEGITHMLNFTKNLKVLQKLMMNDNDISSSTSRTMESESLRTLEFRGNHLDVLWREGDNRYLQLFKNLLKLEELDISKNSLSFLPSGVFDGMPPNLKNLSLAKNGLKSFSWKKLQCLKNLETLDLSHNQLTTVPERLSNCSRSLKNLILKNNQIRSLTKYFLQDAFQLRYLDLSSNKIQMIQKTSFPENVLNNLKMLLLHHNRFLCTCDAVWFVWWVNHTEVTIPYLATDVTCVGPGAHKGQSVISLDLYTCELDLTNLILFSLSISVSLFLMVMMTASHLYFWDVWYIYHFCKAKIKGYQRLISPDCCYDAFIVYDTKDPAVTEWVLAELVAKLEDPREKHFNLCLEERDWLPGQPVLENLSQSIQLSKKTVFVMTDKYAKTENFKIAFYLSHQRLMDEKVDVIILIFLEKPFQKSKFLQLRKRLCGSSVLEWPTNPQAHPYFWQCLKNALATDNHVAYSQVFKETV
Procedure: as §1, §2

human TLR8 = biological target: T3, human TLR8 (Homo sapiens, UniProt Q9NR97); assay: TLR8 inhibition reporter assay (HEK-Blue SEAP); details: cells overexpressing human TLR8, SEAP reporter, stimulated with R848 15.9 μM, 22 hour incubation
T3 construct: host or cells: HEK-Blue cells
T3 sequence (Q9NR97 27-1041): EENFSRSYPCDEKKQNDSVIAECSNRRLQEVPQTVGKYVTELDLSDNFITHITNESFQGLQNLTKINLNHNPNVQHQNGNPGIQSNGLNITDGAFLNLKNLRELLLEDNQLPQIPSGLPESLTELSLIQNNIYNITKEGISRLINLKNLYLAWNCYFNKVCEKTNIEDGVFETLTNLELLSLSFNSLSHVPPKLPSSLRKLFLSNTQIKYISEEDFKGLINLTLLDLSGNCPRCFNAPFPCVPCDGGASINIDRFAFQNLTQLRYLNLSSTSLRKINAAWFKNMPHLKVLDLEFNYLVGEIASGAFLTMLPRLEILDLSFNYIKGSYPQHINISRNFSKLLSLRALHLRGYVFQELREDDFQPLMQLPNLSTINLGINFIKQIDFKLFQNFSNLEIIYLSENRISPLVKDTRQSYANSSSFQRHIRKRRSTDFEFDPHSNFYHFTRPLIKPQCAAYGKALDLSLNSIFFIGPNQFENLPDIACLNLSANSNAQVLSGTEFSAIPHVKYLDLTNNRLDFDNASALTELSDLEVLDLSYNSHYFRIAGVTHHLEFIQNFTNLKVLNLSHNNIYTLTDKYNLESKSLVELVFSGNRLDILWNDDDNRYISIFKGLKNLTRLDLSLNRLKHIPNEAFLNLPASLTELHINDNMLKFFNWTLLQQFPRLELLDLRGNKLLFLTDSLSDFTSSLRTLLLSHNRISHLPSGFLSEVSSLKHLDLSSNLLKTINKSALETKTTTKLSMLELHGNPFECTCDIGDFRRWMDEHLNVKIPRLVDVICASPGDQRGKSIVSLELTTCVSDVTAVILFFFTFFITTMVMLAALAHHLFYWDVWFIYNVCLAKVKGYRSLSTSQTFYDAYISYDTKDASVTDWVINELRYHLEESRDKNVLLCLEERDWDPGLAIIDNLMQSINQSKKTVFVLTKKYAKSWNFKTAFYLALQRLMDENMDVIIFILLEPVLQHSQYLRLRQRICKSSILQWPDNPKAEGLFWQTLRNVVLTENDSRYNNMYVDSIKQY
Procedure: as §1, §2

CCc1c(-c2ccc(OC)c(OC)c2)[nH]c2cnc(C3CCN(CC(=O)N(C)C)CC3)nc12 [Example 49]
IC50 (human TLR9): 1 to 50 µM | IC50 (human TLR7): 0.1 to 1 µM | IC50 (human TLR8): < 0.1 µM

COc1cc(-c2[nH]c3cnc(C4CCN(CC(C)(C)O)CC4)nc3c2C(C)C)cn2ncnc12 [Example 15, 1-(4-(7-isopropyl-6-(8-methoxy-[1,2,4]triazolo[1,5-a]pyridin-6-yl)-5H-pyrrolo[3,2-d]pyrimidin-2-yl)piperidin-1-yl)-2-methylpropan-2-ol]
IC50 (human TLR9): 1 to 50 µM | IC50 (human TLR7): < 0.1 µM | IC50 (human TLR8): < 0.1 µM

COc1ccc(-c2[nH]c3cnc(C4CCN(C(=O)CN(C)C)CC4)nc3c2C(C)C)cc1OC [Example 18, 1-(4-(6-(3,4-dimethoxyphenyl)-7-isopropyl-5H-pyrrolo[3,2-d]pyrimidin-2-yl)piperidin-1-yl)-2-(dimethylanino)ethan-1-one]
IC50 (human TLR9): 0.1 to 1 µM | IC50 (human TLR7): < 0.1 µM | IC50 (human TLR8): 0.1 to 1 µM

COc1ccc(-c2[nH]c3cnc(C4CCNCC4)nc3c2C(C)C)cc1OC [Example 17, 6-(3,4-dimethoxyphenyl)-7-isopropyl-2-(piperidin-4-yl)-5H-pyrrolo[3,2-d]pyrimidine]
IC50 (human TLR9): 0.1 to 1 µM | IC50 (human TLR7): < 0.1 µM | IC50 (human TLR8): < 0.1 µM

CCc1c(-c2ccc(OC)c(OC)c2)[nH]c2cnc(C(=O)NC3CCN(C(C)C)CC3)nc12 [Example 56, 6-(3,4-diunethoxyphenyl)-7-ethyl-N-(1-isopropylpiperidin-4-yl)-5H-pyrrolo[3,2-d]pyrimidine-2-carboxamide]
IC50 (human TLR9): > 50 µM | IC50 (human TLR7): 1 to 50 µM | IC50 (human TLR8): 1 to 50 µM

COc1ccc(-c2[nH]c3cnc(C4CCN(C5CCN(CC(C)C)CC5)CC4)nc3c2C)cc1OC [Example 6, 6-(3,4-dimethoxyphenyl)-2-(1′-isobutyl-[1,4′-bipiperidin]-4-yl)-7-methyl-5H-pyrrolo[3,2-d]pyrimidine]
IC50 (human TLR9): 0.1 to 1 µM | IC50 (human TLR7): 0.1 to 1 µM | IC50 (human TLR8): 0.1 to 1 µM

COc1cc(-c2[nH]c3cnc(C4CCN(CC#N)CC4)nc3c2C(C)C)cn2ncnc12 [Example 59]
IC50 (human TLR9): 0.1 to 1 µM | IC50 (human TLR7): < 0.1 µM | IC50 (human TLR8): < 0.1 µM

COc1cc(-c2[nH]c3cnc(C4CCN(C5COC5)CC4)nc3c2C(C)C)cn2ncnc12 [Example 14, 6-(7-isopropyl-2-(1-(oxetan-3-yl)piperidin-4-yl)-5H-pyrrolo[3,2-d]pyrimidin-6-yl)-8-methoxy-[1,2,4]triazolo[1,5-a]pyridine]
IC50 (human TLR9): 1 to 50 µM | IC50 (human TLR7): < 0.1 µM | IC50 (human TLR8): < 0.1 µM

CNC(=O)CN1CCC(c2ncc3[nH]c(-c4cn5ncnc5c(C)c4C)c(C(C)C)c3n2)CC1 [Example 9, 2-(4-(6-(7,8-dimethyl-[1,2,4]triazolo[1,5-a]pyridin-6-yl)-7-isopropyl-5H-pyrrolo[3,2-d]pyrimidin-2-yl)piperidin-1-yl)-N-methylacetamide]
IC50 (human TLR9): 1 to 50 µM | IC50 (human TLR7): < 0.1 µM | IC50 (human TLR8): < 0.1 µM

CCc1c(-c2ccc(OC)c(OC)c2)[nH]c2cnc(-c3nnc(C[C@@H]4CCCCN4)o3)nc12 [Example 46, (S)-2-(6-(3,4-dimethoxyphenyl)-7-ethyl-5H-pyrrolo[3,2-d]pyrimidin-2-yl)-5-(piperidin-2-ylmethyl)-1,3,4-oxadiazole]
IC50 (human TLR9): 1 to 50 µM | IC50 (human TLR7): 1 to 50 µM | IC50 (human TLR8): 0.1 to 1 µM

Cc1cc(-c2[nH]c3cnc(C4CCN(C)CC4)nc3c2C(C)C)cn(C)c1=O [Example 34, 5-(7-isopropyl-2-(1-methylpiperidin-4-yl)-5H-pyrrolo[3,2-d]pyrimidin-6-yl)-1,3-dimethylpyridin-2(1H)-one]
IC50 (human TLR9): 1 to 50 µM | IC50 (human TLR7): < 0.1 µM | IC50 (human TLR8): < 0.1 µM

CCc1c(-c2ccc(OC)c(OC)c2)[nH]c2cnc(-c3nnc([C@H]4CCNC4)o3)nc12 [Example 44, (S)-2-(6-(3,4-dimethoxyphenyl)-7-ethyl-5H-pyrrolo[3,2-d]pyrimidin-2-yl)-5-(pyrrolidin-3-yl)-1,3,4-oxadiazole]
IC50 (human TLR9): 1 to 50 µM | IC50 (human TLR7): 1 to 50 µM | IC50 (human TLR8): 1 to 50 µM

CCc1c(-c2ccc(OC)c(OC)c2)[nH]c2cnc(-c3nnc(CNC)o3)nc12 [Example 42, 1-(5-(6-(3,4-dimethoxyphenyl)-7-ethyl-5H-pyrrolo[3,2-d]pyrimidin-2-yl)-1,3,4-oxadiazol-2-yl)-N-methylmethanamine]
IC50 (human TLR9): 1 to 50 µM | IC50 (human TLR7): 1 to 50 µM | IC50 (human TLR8): 0.1 to 1 µM
